Results taken from PubChem BioAssay AID1963840 (Molecular Pharmacology Branch, DTP, NCI, 2024).
pIC50: −log10 of the molar value. Values joined by “and” are separate entries in the source; they are usually repeats but may differ in a detail not shown here. Equal entries are not always repeated.

System: 695427-040-R-J1-PDC complex spheroid viability
Assay: Anticancer human tumor 695427-040-R-J1-PDC patient-derived colon adenocarcinoma cell line growth inhibition [POLQ]
Details: for viability, T/C: stronger effect = lower value
Experimental: Multicellular complex tumor spheroid response to Polymerase (POL) inhibitors (novobiocin, ART-558, RP6685) in combination with a variety of drugs and investigational agents in selected tumor cell lines
The POL inhibitors (novobiocin, ART-558, and RP6685) were evaluated both individually and in combination with standard of care and investigational anticancer small molecules within a complex spheroid model of solid tumors. . Complex spheroids include a stromal component modeled by human endothelial cells (HUVEC) and fibroblasts modeled by human mesenchymal stem cells (MSCs). The concentration ranges selected for each drug and investigational agent were based upon clinically achievable concentrations if the clinical Cmax of the agent was known.
Compounds. The drugs and investigational agents: novobiocin (NSC847541), ART-558 (NSC835418), RP-6685 (NSC848927), peposertib (NSC802822), ceralasertib (NSC780249), elimusertib (NSC800525), camonsertib (NSC841442), AZD-1390 (NSC803789), olaparib (NSC753686), talazoparib (NSC767125), rucaparib (NSC756644), sotorasib (NSC818433), MRTX-1133 (NSC836407), SN-38 (NSC673596), topotecan (NSC609699), epotoside (NSC141540), doxorubicin (NSC123127), gemcitabine (NSC613327), 5-fluorouracil (NSC19893), paclitaxel (NSC125973), vemurafenib (NSC761431), MSA-2 (NSC828583), SN-011 (NSC837082), adavosertib (NSC754352), prexasertib (NSC758257), carboplatin (NSC241240) and oxaliplatin (NSC266046), were obtained from the National Cancer Institute (NCI) Developmental Therapeutics Program Chemical Repository (21). The FDA-approved anticancer drug set is available from the Developmental Therapeutics Program at https://dtp.cancer.gov/organization/dscb/obtaining/. […] The stock solutions were prepared in dimethyl sulfoxide (DMSO, Sigma-Aldrich, St. Louis, MO, cat. D2650), except for the platinum compounds which were prepared in saline (Quality Biological, Gaithersburg, MD, cat. 114-055-101), at 800-fold the tested concentration and stored at -70 degrees C prior to their use. All drugs and investigational agents were tested over a range starting from a high concentration at or near the clinical Cmax and decreasing in half-log increments. If the clinical Cmax for an agent had not been determined, the highest concentration tested was 10 microM, except for SN-38, which was tested at a high concentration of 1 microM.
Cell Culture. All cells were maintained in an incubator at 37 degrees C and 5% CO2 with 95% humidity. The PDC lines were cultured according to standard operating procedures established by the NCI PDMR (https://pdmr.cancer.gov). Table 3 of the manuscript, lists the cell lines along with the number of the three cell types plated to form the mct-spheroids and media for tumor cell growth. After thawing, all PDC lines, except 997537-175-T-J1-PDC and 415267-285-R-J2-PDC, were cultured in Matrigel-coated flasks prepared with a working solution of 1X Ham's F-12 nutrient mix, without supplementation (Thermo Fisher Scientific, cat. 11765054), 100 U/mL penicillin-streptomycin (Thermo Fisher Scientific, cat. 15140122), and 2.5% Matrigel (Corning Inc., Corning, NY, cat. 354248) for the first three passages. The two PDC lines 997537-175-T-J1-PDC and 415267-285-R-J2-PDC were cultured on uncoated flasks. The 857933-349-R-J2-PDC line was cultured in 6C/Colon 1B media containing advanced DMEM/F-12 (Thermo Fisher Scientific, cat. 12634028), 10 mM HEPES (Thermo Fisher Scientific, cat. 15630080), 1X GlutaMAX supplement (Thermo Fisher Scientific, cat. 35050061), 0.1 mg/mL primocin (InvivoGen, San Diego, CA, cat. ant-pm-2), 10% defined fetal bovine serum, heat inactivated (HyClone Laboratories Inc., Logan, UT, cat. SH30070.03HI), 50% L-WRN conditioned media (ATCC, cat. CRL-3276), 1.25 mM N-Acetyl-L-cysteine (Sigma-Aldrich, cat. A9165), 10 mM nicotinamide (Sigma-Aldrich, cat. N0636), 1X B-27 supplement (Thermo Fisher Scientific, cat. 17504044), 1X N-2 supplement (Thermo Fisher Scientific, cat. […]

[1] = curve of first compound, second compound 0.0316 µM
[2] = curve of first compound, second compound 0.1 µM
[3] = curve of first compound, second compound 0.316 µM
[4] = curve of first compound, second compound 1 µM
[5] = curve of first compound, second compound 3.16 µM
[6] = curve of first compound, second compound 10 µM
[7] = second compound 0.0316 µM, first compound 0.0316 µM
[8] = second compound 0.0316 µM, first compound 0.1 µM
[9] = second compound 0.1 µM, first compound 0.0316 µM
[10] = second compound 0.1 µM, first compound 0.1 µM
[11] = second compound 0.316 µM, first compound 0.0316 µM
[12] = second compound 0.316 µM, first compound 0.1 µM
[13] = second compound 1 µM, first compound 0.0316 µM
[14] = second compound 1 µM, first compound 0.1 µM
[15] = second compound 3.16 µM, first compound 0.0316 µM
[16] = second compound 3.16 µM, first compound 0.1 µM
[17] = second compound 10 µM, first compound 0.0316 µM
[18] = second compound 10 µM, first compound 0.1 µM
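Further: spheroids exposed to compounds for seven days.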
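Wherever viability, T/C is given: 100% = DMSO vehicle control viability.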

`CC[C@@]1(O)C(=O)OCc2c1cc1n(c2=O)Cc2cc3c(CN(C)C)c(O)ccc3nc2-1` + COC1C(OC(N)=O)C(O)C(Oc2ccc3c(O)c(NC(=O)c4ccc(O)c(CC=C(C)C)c4)c(=O)oc3c2C)OC1(C)C was tested, and the pIC50 [1] was under 7.00, the pIC50 [2] was under 7.00 and the pIC50 [3] was under 7.00. For the same compound, the pIC50 [4] was under 7.00, the pIC50 [5] was under 7.00 and the pIC50 [6] was under 7.00. For the same compound, the viability, T/C (second compound 0.0316 µM, first compound 0.000316 µM) was 103%, the viability, T/C (second compound 0.0316 µM, first compound 0.001 µM) was 96.8% and the viability, T/C (second compound 0.0316 µM, first compound 0.00316 µM) was 97.8%. For the same compound, the viability, T/C (second compound 0.0316 µM, first compound 0.01 µM) was 103%, the viability, T/C [7] was 100% and the viability, T/C [8] was 95.1%. The viability, T/C (second compound 0.1 µM, first compound 0.000316 µM) was 116%, the viability, T/C (second compound 0.1 µM, first compound 0.001 µM) was 104% and the viability, T/C (second compound 0.1 µM, first compound 0.00316 µM) was 101%. The viability, T/C (second compound 0.1 µM, first compound 0.01 µM) was 102%, the viability, T/C [9] was 104% and the viability, T/C [10] was 99.5%. For the same compound, the viability, T/C (second compound 0.316 µM, first compound 0.000316 µM) was 102%, the viability, T/C (second compound 0.316 µM, first compound 0.001 µM) was 102% and the viability, T/C (second compound 0.316 µM, first compound 0.00316 µM) was 106%. It also gave a viability, T/C (second compound 0.316 µM, first compound 0.01 µM) of 104%, a viability, T/C [11] of 105% and a viability, T/C [12] of 92.4%. It also gave a viability, T/C (second compound 1 µM, first compound 0.000316 µM) of 108%, a viability, T/C (second compound 1 µM, first compound 0.001 µM) of 102% and a viability, T/C (second compound 1 µM, first compound 0.00316 µM) of 99.6%. The viability, T/C (second compound 1 µM, first compound 0.01 µM) was 98.1%, the viability, T/C [13] was 106% and the viability, T/C [14] was 93.1%. The viability, T/C (second compound 3.16 µM, first compound 0.000316 µM) was 97.2%, the viability, T/C (second compound 3.16 µM, first compound 0.001 µM) was 101% and the viability, T/C (second compound 3.16 µM, first compound 0.00316 µM) was 103%. The viability, T/C (second compound 3.16 µM, first compound 0.01 µM) was 97.2%, the viability, T/C [15] was 105% and the viability, T/C [16] was 86%. The viability, T/C (second compound 10 µM, first compound 0.000316 µM) was 107%, the viability, T/C (second compound 10 µM, first compound 0.001 µM) was 103% and the viability, T/C (second compound 10 µM, first compound 0.00316 µM) was 105%. It also gave a viability, T/C (second compound 10 µM, first compound 0.01 µM) of 106%, a viability, T/C [17] of 105% and a viability, T/C [18] of 93%.
With `COc1cc2cc(C(=O)CCC(=O)O)sc2cc1OC` the viability, T/C (compound 0.0316 µM) was 109% and 100% and 101%, the viability, T/C (compound 0.1 µM) was 97.3% and 102% and 99.5% and the viability, T/C (compound 0.316 µM) was 97.4% and 105% and 103%. For the same compound, the viability, T/C (compound 1 µM) was 104% and 105% and 107%, the viability, T/C (compound 3.16 µM) was 103% and 102% (2×) and the viability, T/C (compound 10 µM) was 99.8% and 93.7% and 102%. It also gave a pIC50 (curve of compound) of under 5.00.
Compound `O=c1[nH]cc(F)c(=O)[nH]1` + Nc1ccc(C#CCN(C(=O)Cc2ncc(C(F)(F)F)cc2C(F)(F)F)c2ccc(F)cc2)nn1 has a pIC50 [1] of under 5.00, a pIC50 [2] of under 5.00 and a pIC50 [3] of under 5.00. For the same compound, the pIC50 [4] was under 5.00, the pIC50 [5] was under 5.00 and the pIC50 [6] was under 5.00. The viability, T/C [7] was 111%, the viability, T/C [8] was 111% and the viability, T/C (second compound 0.0316 µM, first compound 0.316 µM) was 98.8%. For the same compound, the viability, T/C (second compound 0.0316 µM, first compound 1 µM) was 102%, the viability, T/C (second compound 0.0316 µM, first compound 3.16 µM) was 112% and the viability, T/C (second compound 0.0316 µM, first compound 10 µM) was 106%. For the same compound, the viability, T/C [9] was 111%, the viability, T/C [10] was 106% and the viability, T/C (second compound 0.1 µM, first compound 0.316 µM) was 95.1%. For the same compound, the viability, T/C (second compound 0.1 µM, first compound 1 µM) was 106%, the viability, T/C (second compound 0.1 µM, first compound 3.16 µM) was 111% and the viability, T/C (second compound 0.1 µM, first compound 10 µM) was 100%. For the same compound, the viability, T/C [11] was 110%, the viability, T/C [12] was 105% and the viability, T/C (second compound 0.316 µM, first compound 0.316 µM) was 99.5%. For the same compound, the viability, T/C (second compound 0.316 µM, first compound 1 µM) was 112%, the viability, T/C (second compound 0.316 µM, first compound 3.16 µM) was 106% and the viability, T/C (second compound 0.316 µM, first compound 10 µM) was 90.9%. For the same compound, the viability, T/C [13] was 104%, the viability, T/C [14] was 98.8% and the viability, T/C (second compound 1 µM, first compound 0.316 µM) was 90.5%. For the same compound, the viability, T/C (second compound 1 µM, first compound 1 µM) was 107%, the viability, T/C (second compound 1 µM, first compound 3.16 µM) was 107% and the viability, T/C (second compound 1 µM, first compound 10 µM) was 99.1%. For the same compound, the viability, T/C [15] was 98.7%, the viability, T/C [16] was 107% and the viability, T/C (second compound 3.16 µM, first compound 0.316 µM) was 97.6%. It also gave a viability, T/C (second compound 3.16 µM, first compound 1 µM) of 93.2%, a viability, T/C (second compound 3.16 µM, first compound 3.16 µM) of 103% and a viability, T/C (second compound 3.16 µM, first compound 10 µM) of 108%. The viability, T/C [17] was 110%, the viability, T/C [18] was 103% and the viability, T/C (second compound 10 µM, first compound 0.316 µM) was 98%. For the same compound, the viability, T/C (second compound 10 µM, first compound 1 µM) was 97.5%, the viability, T/C (second compound 10 µM, first compound 3.16 µM) was 96.7% and the viability, T/C (second compound 10 µM, first compound 10 µM) was 101%.
